Measurements published in US5877210A, “Phosphotyrosine phosphatase inhibitors or phosphotyrosine kinase activators for controlling cellular proliferation” (priority 1995, dated 1999).
Where two headings read alike, the source gives them in different places.

Columns and labels:
[1] = test system: antibody-producing B cells; test: Class-switching: Ig production by anti-CD40 + IL-4 treated B cells; type: cell-based, human
Experimental: The effects of BMLOV were assayed on class-switching in antibody-producing B cells. Human B cells producing antibody were treated with anti-CD40 antibody plus IL-4, which increased production of IgE over 10-fold (Table 7). […] In contrast, the production of IgG1 and IgG4 was much less affected, particularly at a dose of 5.6 μM BMLOV. This selective effect is important because the IgG antibody production is an important response to infectious disease. It would be of value to suppress IgE production for the treatment of allergies while maintaining IgG production, particularly in conditions in which an allergy coexists with an infectious disease. A common example is the exacerbation of allergic rhinitis (hay fever) as the result of a respiratory infection.

Lyn = test: Src-family kinase activity from treated Ramos cells; type: cell-based, human; details: Ramos cells treated with BMLOV for 15 hours
Experimental: (§1) Treatment of Ramos cells with BMLOV for 15 hours inhibited the activity of the Src kinases Lyn and Fyn from the cells by approximately 50%.

Fyn = test: as above; type: cell-based, human; details: Ramos cells treated with BMLOV for 15 hours
Experimental: as §1

[2] = test system: calf intestinal alkaline phosphatase; test: Alkaline phosphatase inhibition; type: biochemical
[3] = test system: mixed lymphocyte response cultures dependent on CD28 costimulation; test: Mixed lymphocyte response cultures; type: cell-based; details: 0.5 to 5 μM BMLOV
Experimental: Mixed lymphocyte response cultures that are dependent on CD28 costimulation were inhibited by over 50% by 0.5 to 5 μM BMLOV (FIG. 8).

H3347 carcinoma cells = test: Anti-phosphotyrosine immunoblot; type: cell-based, human
Ramos B cells = test: Confocal laser scanning microscopy; type: cell-based, human; details: 25 μm BMLOV, 48 h
Experimental: Cells were fixed with 3.7% formaldehyde in PBS and permeabilized by treatment with 0.1% saponin. […] The cells were then washed three times in staining buffer, and stained with fluorescein-labeled goat anti-rabbit antibody (Molecular Probes). After washing three times in staining buffer, cells were stained for DNA with 2 μg/ml propidium iodide. A Leica GmbH confocal laser scanning microscope (CLSM) (Leica Laser Technic, Heidelberg, Germany) equipped with a krypton/argon laser (Omnichrome, Chino, Calif.), 2 double dichroic beam splitters with λs1 /λs2 of 488/647 and 488/568 nm, 1 neutral density beam splitter (Lys Optics, Denmark), the Leica CLSM software accessories, and the Leica true color display graphics package was used to produce the confocal images.
In addition to DNA fragmentation, apoptotic lymphocytes display condensation of chromatin, loss of DNA and fragmentation of nuclei that can be detected by confocal laser scanning microscopy (CLSM) of propidium iodide stained cells (R. Sgonc & G. Wick, Int. Arch. Allergy Immunol. 105:327-332 (1994)). Therefore, CLSM was used to examine Ramos cells stained for DNA with propidium iodide and stained for phosphotyrosine (FIG. 29). In the experiments shown in FIG. 29, Ramos B cells were fixed, permeabilized and stained with propidium iodide for DNA (red) and with anti-phosphotyrosine antibodies (green) as described above. […]

PTP1B = biological target: T1, PTP1B (Homo sapiens, UniProt P18031); test: Phosphotyrosine phosphatase PTP1B inhibition; type: biochemical
T1 construct: purchased Upstate Biotechnology, Lake Placid, N.Y
T1 sequence (P18031 1-435): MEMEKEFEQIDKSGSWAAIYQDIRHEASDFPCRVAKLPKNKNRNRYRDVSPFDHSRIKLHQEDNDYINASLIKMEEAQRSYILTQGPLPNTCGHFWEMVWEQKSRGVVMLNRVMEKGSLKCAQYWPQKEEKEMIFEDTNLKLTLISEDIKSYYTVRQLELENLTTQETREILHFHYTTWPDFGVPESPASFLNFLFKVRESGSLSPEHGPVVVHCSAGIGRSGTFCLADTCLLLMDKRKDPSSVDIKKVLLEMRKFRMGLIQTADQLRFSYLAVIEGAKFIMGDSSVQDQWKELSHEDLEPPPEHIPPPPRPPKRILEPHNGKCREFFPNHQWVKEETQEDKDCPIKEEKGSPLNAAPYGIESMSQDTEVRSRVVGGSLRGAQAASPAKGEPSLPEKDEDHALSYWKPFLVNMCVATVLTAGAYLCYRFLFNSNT

[4] = Anti-CD40 + IL-4 + 0.002 μM BMLOV
[5] = Anti-CD40 + IL-4 + 0.008 μM BMLOV
[6] = Anti-CD40 + IL-4 + 0.02 μM BMLOV
[7] = Anti-CD40 + IL-4 + 0.07 μM BMLOV
[8] = Anti-CD40 + IL-4 + 0.2 μM BMLOV
[9] = Anti-CD40 + IL-4 + 0.6 μM BMLOV
[10] = Anti-CD40 + IL-4 + 1.9 μM BMLOV
[11] = Anti-CD40 + IL-4 + 5.6 μM BMLOV

Cc1occc(=O)c1[O-].Cc1occc(=O)c1[O-].[O]=[V+2] [BMLOV, Bis(maltolato)oxovanadium (IV)]
increased production of IgE, in words ([1]; 5.6 or 17 μM BMLOV): markedly inhibited
[Ig] IgE [1, 4]: 3.9 ng/mL
[Ig] IgG1 [1, 4]: 450 ng/mL
[Ig] IgG4 [1, 4]: 1.7 ng/mL
[Ig] IgM [1, 4]: 20.4 ng/mL
[Ig] IgE [1, 5]: 2.6 ng/mL
[Ig] IgG1 [1, 5]: 450 ng/mL
[Ig] IgG4 [1, 5]: 1.1 ng/mL
[Ig] IgM [1, 5]: 20.4 ng/mL
[Ig] IgE [1, 6]: 4.5 ng/mL
[Ig] IgG1 [1, 6]: 390 ng/mL
[Ig] IgG4 [1, 6]: 1.3 ng/mL
[Ig] IgM [1, 6]: 19.2 ng/mL
[Ig] IgE [1, 7]: 5.1 ng/mL
[Ig] IgG1 [1, 7]: 450 ng/mL
[Ig] IgG4 [1, 7]: 2.7 ng/mL
[Ig] IgM [1, 7]: 12.0 ng/mL
[Ig] IgE [1, 8]: 7.5 ng/mL
[Ig] IgG1 [1, 8]: 495 ng/mL
[Ig] IgG4 [1, 8]: 1.2 ng/mL
[Ig] IgM [1, 8]: 13.8 ng/mL
[Ig] IgE [1, 9]: 5.7 ng/mL
[Ig] IgG1 [1, 9]: 480 ng/mL
[Ig] IgG4 [1, 9]: 1.3 ng/mL
[Ig] IgM [1, 9]: 17.4 ng/mL
[Ig] IgE [1, 10]: 3.0 ng/mL
[Ig] IgG1 [1, 10]: 450 ng/mL
[Ig] IgG4 [1, 10]: 2.7 ng/mL
[Ig] IgM [1, 10]: 15.6 ng/mL
[Ig] IgE [1, 11]: 1.2 ng/mL
[Ig] IgG1 [1, 11]: 480 ng/mL
[Ig] IgG4 [1, 11]: 1.8 ng/mL
[Ig] IgM [1, 11]: 18.6 ng/mL
[Ig] IgE ([1]; Anti-CD40 + IL-4 + 17 μM BMLOV): 0.8 ng/mL
[Ig] IgG1 ([1]; Anti-CD40 + IL-4 + 17 μM BMLOV): 450 ng/mL
[Ig] IgG4 ([1]; Anti-CD40 + IL-4 + 17 μM BMLOV): 0.8 ng/mL
[Ig] IgM ([1]; Anti-CD40 + IL-4 + 17 μM BMLOV): 18.0 ng/mL
[Ig] IgE ([1]; Anti-CD40 + IL-4 + 50 μM BMLOV): 0.2 ng/mL
[Ig] IgG1 ([1]; Anti-CD40 + IL-4 + 50 μM BMLOV): 60 ng/mL
[Ig] IgG4 ([1]; Anti-CD40 + IL-4 + 50 μM BMLOV): 0.5 ng/mL
[Ig] IgM ([1]; Anti-CD40 + IL-4 + 50 μM BMLOV): 5.1 ng/mL
inhibition of kinase activity (Lyn): approximately 50%
inhibition of kinase activity (Fyn): approximately 50%
inhibition of calf intestinal alkaline phosphatase ([2]; 500 μM BMLOV): less than 10%
IC50 ([2]; Table 1, p-nitrophenyl phosphate substrate): > 500 µM
IC50 ([2]; Table 8): > 500 µM
inhibition of mixed lymphocyte response [3]: over 50%
induction of tyrosine phosphorylation (H3347 carcinoma cells): weakly induce tyrosine phosphorylation
nuclear morphology by CLSM (Ramos B cells): extensive loss of DNA, condensation of chromatin
IC50 (PTP1B): ~0.025 µM
IC50 (PTP1B; Table 1, phosphorylated myelin basic protein substrate): 0.026 µM
IC50 (PTP1B; Table 8): 0.026 µM
